This note sets out measurements from ChEMBL document CHEMBL2424520, “Screening and evaluation of small organic molecules as ClpB inhibitors and potential antimicrobials” (J Med Chem, 2013).

Series [1] is described as follows: Inhibition of DNAK (unknown origin) assessed as reactivation of luciferase aggregates after 2 hrs in presence of Tween 80.
Series [2] can be described thus: Inhibition of DNAK (unknown origin) assessed as reactivation of luciferase aggregates after 2 hrs.
Series [3] is described as follows: Inhibition of DNAK/CLPB (unknown origin) assessed as reactivation of malate dehydrogenase aggregates after 2 hrs in presence of Tween 80.
The nature of series [4]: Inhibition of DNAK/CLPB (unknown origin) assessed as reactivation of malate dehydrogenase aggregates after 2 hrs.
The nature of series [5]: Activation of CLPB (unknown origin) expressed in Escherichia coli MC4100 using alpha-casein as substrate at 1 to 100 uM by spectrophotometric analysis.
Series [6] can be described thus: Activation of CLPB (unknown origin) expressed in Escherichia coli MC4100 at 1 to 100 uM by spectrophotometric analysis.
A short description of series [7]: Binding affinity to CLPB (unknown origin) expressed in Escherichia coli MC4100 assessed as change in melting temperature at 100 to 200 uM after 30 mins by DSF analysis in presence of ATPgammaS.
Series [8] can be described thus: Binding affinity to CLPB (unknown origin) expressed in Escherichia coli MC4100 assessed as change in melting temperature at 100 to 200 uM after 30 mins by DSF analysis. In general terms: DSF heats the sample and reads unfolding from a dye or from intrinsic fluorescence.
Series [9] in a line: Effect on ATPase activity of CLPB (unknown origin) expressed in Escherichia coli MC4100 using alpha-casein as substrate at 1 to 100 uM by spectrophotometric analysis.
The nature of series [10]: Effect on ATPase activity of CLPB (unknown origin) expressed in Escherichia coli MC4100 at 1 to 100 uM by spectrophotometric analysis.
Series [11] is described as follows: Binding affinity to CLPB (unknown origin) expressed in Escherichia coli MC4100 assessed as change in melting temperature at 100 to 200 uM after 30 mins by DSF analysis in presence of ADP.
Series [12] in a line: Binding affinity to CLPB (unknown origin) expressed in Escherichia coli MC4100 assessed as change in melting temperature at 100 to 200 uM after 30 mins by DSF analysis in presence of ATP.
Series [13] can be described thus: Cytotoxicity against human HeLa cells assessed as cell viability at 40 to 100 uM after 72 hrs by tetrazolium reduction assay relative to control. In kind it is cell-based. As to conditions: read-out: Activity.
Series [14] in a line: Cytotoxicity against CHO cells assessed as cell viability at 40 to 100 uM after 72 hrs by tetrazolium reduction assay relative to control. Format: cell-based, Cricetulus griseus. As to conditions: chinese hamster, read-out: Activity.
The subject of series [15] is Escherichia coli. Kind of series: Antibacterial activity against TolC-deleted Escherichia coli JLS1015 at 37 to 47 degC after 7 hrs by two-fold dilution method. As to conditions: JLS1015, 7 h. Format: functional.
Series [16] concerns Escherichia coli. Kind of series: Antibacterial activity against CLPB-deleted Escherichia coli MC4100 assessed as growth inhibition at 37 degC after 24 hrs by two-fold dilution method. Format: functional, organism-based.
Series [17] concerns Escherichia coli. Kind of series: Antibacterial activity against Escherichia coli MC4100 assessed as growth inhibition at 37 degC after 24 hrs by two-fold dilution method. Format: functional, organism-based.
The subject of series [18] is Escherichia coli. The series can be described thus: Antibacterial activity against CLPB-deleted Escherichia coli MC4100 assessed as reduction of CFU count at 300 uM at 37 degC after 24 hrs by two-fold dilution method. Format: functional, organism-based.
The subject of series [19] is Escherichia coli. The series can be described thus: Antibacterial activity against CLPB-deleted Escherichia coli MC4100 assessed as reduction of CFU count at 300 uM at 37 degC after 24 hrs by two-fold dilution method in presence of paraquat. In kind it is functional, organism-based.
For series [20], the system named is Escherichia coli. The series can be described thus: Antibacterial activity against Escherichia coli MC4100 assessed as reduction of CFU count at 300 uM at 42 degC after 24 hrs by two-fold dilution method. Format: functional.
Series [21] deals with Escherichia coli. Kind of series: Antibacterial activity against Escherichia coli MC4100 assessed as reduction of CFU count at 300 uM at 37 degC after 24 hrs by two-fold dilution method in presence of paraquat. In kind it is functional.
Series [22] has as its system Escherichia coli. Kind of series: Antibacterial activity against Escherichia coli MC4100 assessed as growth inhibition at 42 degC after 24 hrs by two-fold dilution method in presence of paraquat. In kind it is functional. To be noted: MC4100, 24 h.
For series [23], the system named is Escherichia coli. The series can be described thus: Antibacterial activity against Escherichia coli BL21(DE3) assessed as growth inhibition at 42 degC after 24 hrs by two-fold dilution method in presence of paraquat. Format: functional.
Series [24] is described as follows: Binding affinity to CLPB (unknown origin) expressed in Escherichia coli MC4100 up to 400 seconds by surface plasmon resonance analysis. On the technique in general: SPR reads the build-up and loss of mass on a sensor chip optically.
A short description of series [25]: Binding affinity to CLPB E276A/E678A mutant (unknown origin)-alpha-casein complex expressed in Escherichia coli MC4100 at 0.1 to 1000 uM by titrimetric analysis.
The nature of series [26]: Binding affinity to CLPB E276A/E678A mutant (unknown origin) expressed in Escherichia coli MC4100 at 100 uM in presence of alpha-casein by spectrofluorimetric analysis.
Series [27] is described as follows: Binding affinity to CLPB E276A/E678A mutant (unknown origin) expressed in Escherichia coli MC4100 assessed as change in melting temperature by DSF analysis.
Series [28] concerns Escherichia coli. Kind of series: Antibacterial activity against CLPB-deleted Escherichia coli MC4100 assessed as growth inhibition at 0.1 to 1000 uM at 37 to 47 degC after 24 hrs by two-fold dilution method in presence of paraquat. Format: functional, organism-based.
The test system of series [29] is Escherichia coli. The series can be described thus: Antibacterial activity against Escherichia coli BL21(DE3) assessed as growth inhibition at 0.1 to 1000 uM at 37 to 47 degC after 24 hrs by two-fold dilution method in presence of paraquat. Format: functional.
A short description of series [30]: Inhibition of ATPase activity of CLPB (unknown origin) expressed in Escherichia coli MC4100 using 20 to 100 uM alpha-casein as substrate at 1 to 100 uM by spectrophotometric analysis.
Series [31] is described as follows: Inhibition of ATPase activity of CLPB (unknown origin) expressed in Escherichia coli MC4100 using 10 uM alpha-casein as substrate at 1 to 100 uM by spectrophotometric analysis.
Series [32] concerns Escherichia coli. The series can be described thus: Antibacterial activity against Escherichia coli MC4100 assessed as growth inhibition at 0.1 to 1000 uM at 37 to 47 degC after 24 hrs by two-fold dilution method in presence of paraquat. In kind it is functional, organism-based.

Values after ≈ are worked out from the molar mass of the structure shown. Active and inactive are the calls of the source. The calls are words filed in the database; no cut-off is given here.

By IC50 is commonly meant the point on the concentration scale where inhibition reaches its midpoint. What is called ΔTm is the shift of the melting midpoint relative to a reference. Regarding `O=C1Nc2ccc([N+](=O)[O-])cc2/C1=C1\SC(=O)N(c2ccc(Cl)cc2)C1=O`, the concentration for half-maximal inhibition (IC50) in series [1] is 60 µM; in series [2], 40 µM; in series [3], 6 µM; in series [4], 10 µM. Besides, the result in series [5] and in series [6] was Active. The ΔTm in series [7] was 12.3 °C; in series [8], more than 40 °C.
For the molecule `CC(C)[C@H](C(=O)O)N1C(=O)/C(=C2/C(=O)Nc3ccc(Br)cc32)SC1=S`, the IC50 in [4] is more than 100 µM. Also, the result in series [9] and in series [10] was inactive. The thermal shift (ΔTm) is 19.3 °C in [7], 19.9 °C in [11], 22.1 °C in series [12] and 24.2 °C in series [8].
Regarding `C(=C\C=C\Nc1ccccc1)/C=C/Nc1ccccc1`, the half-inhibitory concentration (IC50) in series [2] is 100 µM; in [4], more than 100 µM. Also, the outcome in [5] and in series [6] was Active. Also, the thermal shift (ΔTm) in [7] amounted to 13.3 °C; in series [11], 12.3 °C; in [12], 11.9 °C; in series [8], 17.5 °C.
Regarding `COCCCN1C(=O)C(=C2C(=O)Nc3ccc(Br)cc32)SC1=S`, the 50% inhibitory concentration (IC50) in series [4] was more than 100 µM. The result in [9] and in series [10] was inactive. Further, the ΔTm worked out at 14.3 °C in series [7], 9.4 °C in series [11], 13.1 °C in series [12] and 8.4 °C in series [8].
One may read the MIC as the least concentration at which growth counts as inhibited. In general, Kd refers to the constant that tells how readily two partners part at equilibrium. As for `O=C(Nc1ccccc1)OCCSC(=O)Nc1ccc(Cl)c(Cl)c1`, the viability at 72 h, up to 100 µM in [13] and in [14] was 50% throughout. For the same molecule, the MIC turned out to be 5 µM (≈ 1.93 µg/mL) against Escherichia coli [15], 60 µM in the series with Escherichia coli [22] and 60 µM with Escherichia coli [23]. Moreover, the “growth inhibition (GI)” value in the series on Escherichia coli [16], with Escherichia coli [17], in the series with Escherichia coli [29] and in the series on Escherichia coli [32] was “Active” each time. Further, the outcome (in the series with Escherichia coli [18]; in the series on Escherichia coli [19]; in series [25]) was inactive. Besides, the log10cfu with Escherichia coli [20] and with Escherichia coli [21] was 2 throughout. In addition, the IC50 was more than 100 µM in series [1], more than 100 µM in series [2], 15 µM in series [3] and 20 µM in [4]. Moreover, the figures for the dissociation constant (Kd) in [24] and in [27] were 19 µM and 23 µM, respectively. In addition, in series [26], the result was Active. Also, the “growth inhibition (GI)” value in the series with Escherichia coli [28] was “inactive”. Also, the inhibition entry in series [30] was “inactive”. Moreover, the inhibition result in series [31] is “Active”. Further, the ΔTm in series [7] is 2 °C; in series [11], 0.8 °C; in [12], 0.8 °C; in series [8] it was 1.5 °C.
As to `O=C1Nc2ccc(Br)cc2/C1=C1/SC(=O)N(c2ccccc2)C1=O`, the IC50 turned out to be 50 µM in series [1], 85 µM in [2], 15 µM in [3] and 30 µM in series [4]. The outcome in series [5] and in series [6] was Active. Moreover, the thermal shift (ΔTm) in series [7] is 14.6 °C; in series [11], -0.7 °C; in series [12] it was -0.2 °C; in [8], 18.1 °C.
Regarding `O=C(Nc1cccc([N+](=O)[O-])c1)c1sc2cccc(Cl)c2c1Cl`, the values for the concentration for half-maximal inhibition (IC50) in series [2] and in series [4] were more than 100 µM and 90 µM, respectively. The outcome in series [9] and in series [10] was inactive. The thermal shift (ΔTm) in series [7] turned out to be 4.2 °C; in [11], 5.2 °C; in [12], 1.8 °C; in series [8], 0.8 °C.
Take `Cc1c(Cl)c([N+](=O)[O-])nn1CC(=O)Nc1cc(Oc2ccc(Cl)cc2Cl)cc([N+](=O)[O-])c1`: the half-inhibitory concentration (IC50) in series [2] and in [4] was more than 100 µM each time. Further, the result in series [9] and in series [10] was inactive. Also, the shift in melting temperature (ΔTm) in series [11] turned out to be 0.7 °C; in series [12], 2 °C; in series [8], 14.3 °C.
As to `COc1cc(/C=C2/C(=O)NN(c3ccc(Cl)cc3)C2=O)ccc1OCc1ccc(F)cc1`, the IC50 in series [1] was more than 100 µM; in series [2], more than 100 µM; in series [3] it was 11 µM; in [4], 7.5 µM. For the same molecule, the result in series [5] and in series [6] was Active. Moreover, the ΔTm was found to be 7.1 °C in [7], 0.7 °C in [11], 1.2 °C in series [12] and 1 °C in [8].
Consider `C=CCN1C(=O)C(=C2C(=O)Nc3ccccc32)SC1=S`, for which the half-maximal inhibitory concentration (IC50) in series [1], in series [2], in series [3] and in series [4] was more than 100 µM throughout. For the same molecule, the outcome in [9] and in [10] was inactive. The ΔTm in [7] was 5.4 °C; in series [11], 7.6 °C; in [12], 7.9 °C; in series [8], 9 °C.
